How the values were obtained:
[1] = target: T1, HIV-1 RT V106A (Human immunodeficiency virus type 1 group M subtype B, UniProt P03366, V705A); experiment: Reverse transcriptase (RT) assay, V106A mutant; format: biochemical
T1 construct: an HIV RT clone pKRT2 containing only the RT p66 gene regulated by the lac operon/trc promoter; made in house; host or cells: E. coli JM109, vector pKK233-2
Summary of the method: (§1)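 Tritium incorporation from 3H-dGTP into newly synthesised DNA is the read-out. The mutant reverse transcriptases copy a synthetic poly r(C) template carrying a biotinylated oligo d(G) primer. Each mutant enzyme is tested under the same conditions used for wild-type RT.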

[2] = target: T2, HIV-1 RT Y188L (Human immunodeficiency virus type 1 group M subtype B, UniProt P03366, Y787L); experiment: Reverse transcriptase (RT) assay, Y188L mutant; format: biochemical
T2 construct: an HIV RT clone pKRT2 containing only the RT p66 gene regulated by the lac operon/trc promoter; made in house; host or cells: E. coli JM109, vector pKK233-2
Summary of the method: as §1

[3] = target: T3, HIV-1 RT G190A (Human immunodeficiency virus type 1 group M subtype B, UniProt P03366, G789A); experiment: Reverse transcriptase (RT) assay, G190A mutant; format: biochemical
T3 construct: an HIV RT clone pKRT2 containing only the RT p66 gene regulated by the lac operon/trc promoter; made in house; host or cells: E. coli JM109, vector pKK233-2
Text: Among the enzymes for which Human Immunodeficiency Virus (HIV-1) encodes is a reverse transcriptase (1), so-named because it transcribes a DNA copy from an RNA template. This activity can be quantitatively measured in a cell-free enzyme assay and is based upon the observation that reverse transcriptase is able to use a synthetic template poly r(C) primed with a biotinylated oligo d(G) to transcribe a radio-labelled DNA strand utilising 3H-dGTP as a substrate. The assay described below utilises the wild-type enzyme (which is the predominant form of the enzyme observed in patients infected with HIV-1) and can also be used with mutant RT enzymes (for example, Y181C, prepared by site-directed mutagenesis in which the tyrosine residue at codon 181 has been replaced by a cysteine residue) in analogous assay conditions. This assay allows compounds to be evaluated for their effectiveness at inhibiting the mutant enzymes.
Some HIV-1 IIIB clone BH10 RT mutants were provided by Dr. C.-K. Shih (Boehringer Ingelheim Pharmaceutials Inc., U.S.A.) in the vector pKK233-2 (Pharmacia). Briefly an HIV RT clone pKRT2 containing only the RT p66 gene regulated by the lac operon/trc promoter was obtained from Dr. W. Summers (Yale University) (2). A variety of specific amino acid substitutions were introduced into the wild-type RT gene by site-directed mutagenesis. RT clones were subcloned into the pKK233-2 bacterial expression vector. Clones provided included wild-type, Val106Ala, Tyr181Cys, Tyr188Cys, Tyr188Leu, Gly190Ala and Pro236Leu. Others were made in-house by site-directed mutagenesis of the pKK233-2 RT clones including Lys103Asn, Lys103Asn/Tyr181Cys, Lys103Asn/Leu100Ile, Lys103Asn/Pro225His, and Lys103Asn/Val108Ile.
Purification of recombinant reverse transcriptase was performed using a combination of methods previously described (3). A single colony from a fresh plate of transformed JM109 cells was used to initiate growth of a pre-culture grown o/n at 37° C. Two liters of growth medium were inoculated with this pre-culture. At OD600˜1.5 (5-6 h at 37° C.), RT gene expression was induced with IPTG (1 mM final), and the fermentation was continued for a few more hours at 37° C. After centrifugation, supernatants were discarded while cell pellets were pooled and stored at −80° C. until purification. Cells were thawed at 4° C. overnight and suspended in lysis buffer (MES 50 mM pH 6, EDTA 1 mM, 10% v/v glyerol, 0.02% w/v OBG, 0.02% w/v sodium azide). Lysozyme was added and the mixture was incubated on ice for 40 minutes. After homogenization using a bounce in presence of lysozyme and sonication, the cells were centrifuged for 30 minutes. Supernatant (S1) was saved and stored at 4° C. The centrifuged pellet was resuspended in extraction buffer (MES 50 mM pH 6, KPO4 50 mM pH 6, KCl 100 mM, 10% v/v glycerol, 0.02% w/v OBG, 0.02% w/v sodium axide) and stirred for 30 minutes at 4° C. This second mixture was centrifuged again and the supernatant (S2) was saved. The above procedure was repeated 2 more times saving supernatants S3 and S4 and one last extraction was performed overnight (S5). Polymin P (0.005% final) was added to the combined supernatants to remove nucleic acids. This solution was stirred for 75 minutes at 4° C. and centrifuged for 1 h. The supernatant (SS1) was precipitated on ice with 20% w/v ammonium sulfate and stirred for 1 h at 4° C. The mixture was then centrifuged and the resulting supernatant (SS2) was precipitated with additional 40% w/v ammonium sulfate (60% total), stirred for 1 h and centrifuged again. The final pellet (P1) was stored overnight at 4° C. before undergoing purification the following day. All steps of the purification were performed at 4° C. unless otherwise stated.
Pellet (P1) was resuspended into MES 50 mM pH 6, KPO4 10 mM pH 6, KCl 100 mM, 10% v/v glycerol, 0.02% w/v OBG, 0.02% w/v sodium azide. The suspension was dialysis against the same buffer overnight using 12-14 kD MWCO dialysis tubing. […]

[4] = target: T4, HIV-1 RT K103N/L100I (Human immunodeficiency virus type 1 group M subtype B, UniProt P03366, K702N/L699I); experiment: Reverse transcriptase (RT) assay, K103N/L100I mutant; format: biochemical
T4 construct: an HIV RT clone pKRT2 containing only the RT p66 gene regulated by the lac operon/trc promoter; made in house; host or cells: E. coli JM109, vector pKK233-2
Summary of the method: as §1

[5] = test system: HIV coding for wild-type reverse transcriptase (WT RT); experiment: ELISA (p24) assay of HIV replication in C8166 cell culture, wild-type RT virus; format: cell-based, HIV-1; conditions: Human immunodeficiency virus 1, C8166, 72 h, read-out: EC50 WT RT
Summary of the method: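 C8166 T cells infected at MOI 0.001 with wild-type or mutant RT HIV, then grown 3 days with serial compound dilutions in RPMI 1640 + 10% FBS. Extracellular p24 in supernatant pooled from eight replica wells measured by ELISA; % inhibition calculated from p24 levels.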

[6] = test system: HIV coding for mutant reverse transcriptase Y181C; experiment: ELISA (p24) assay of HIV replication in C8166 cell culture, Y181C virus; format: cell-based, HIV-1; conditions: Human immunodeficiency virus 1, C8166, 72 h, read-out: EC50 Y181C
Procedure: (§2) Compounds of the invention were tested for their ability to inhibit HIV replication in cell culture in a 96-well plate assay. Complete RPMI 1640, consisting of RPMI 1640+10% fetal bovine serum, 10 μg/ml gentamycin and 10 μM β-mercaptoethanol was used for dilution of the compound as well as cell growth medium. The T lymphocyte cell line C8166 was infected at a multiplicity of infection of 0.001 with viruses coding for wild-type and mutant reverse transcriptase. Cells were then incubated for three days in the presence of serial dilutions of the compounds of the invention. The supernatant was pooled from eight replica wells and the concentration of extracellular p24 was determined using a commercially available HIV-1 p24 antigen assay kit (Beckman-Coulter®). The level of inhibition (% inhibition) was calculated with the following equation: [formula]

[7] = test system: HIV coding for mutant reverse transcriptase K103N/Y181C; experiment: ELISA (p24) assay of HIV replication in C8166 cell culture, K103N/Y181C virus; format: cell-based, HIV-1; conditions: Human immunodeficiency virus 1, C8166, 72 h, read-out: EC50 K103N/Y181C
Procedure: as §2

[8] = test system: HIV coding for mutant reverse transcriptase K103N/V108I; experiment: ELISA (p24) assay of HIV replication in C8166 cell culture, K103N/V108I virus; format: cell-based, HIV-1; conditions: Human immunodeficiency virus 1, C8166, 72 h, read-out: EC50 K103N/V108I
Procedure: as §2

[9] = test system: HIV coding for mutant reverse transcriptase K103N/L100I; experiment: ELISA (p24) assay of HIV replication in C8166 cell culture, K103N/L100I virus; format: cell-based, HIV-1; conditions: Human immunodeficiency virus 1, C8166, 72 h, read-out: EC50 K103N/L100I
Procedure: as §2

| SMILES | IC50 [1] [nM] | IC50 [2] [nM] | IC50 [3] [nM] | IC50 [4] [nM] | EC50 [5] [nM] | EC50 [6] [nM] | EC50 [7] [nM] | EC50 [8] [nM] | EC50 [9] [nM] |
| --- | --- | --- | --- | --- | --- | --- | --- | --- | --- |
| CCN1c2ncc(CCOc3cc[n+]([O-])c4ccccc34)cc2C(=O)N(C)c2ccc(F)nc21 [compound 11, 5,11-Dihydro-11-ethyl-2-fluoro-5-methyl-8-{2-{(1-oxido-4-quinolinyl)oxy}-ethyl}-6H-dipyrido[3,2-b:2′,3′-e][1,4]diazepin-6-one] | 336 | 661 | 19 | 102 | 0.34 | 4.1 | 7.5 | 3.9 | 3.2 |
| CCN1c2ncc(CCOc3cc[n+]([O-])c4ccccc34)cc2C(=O)N(C)c2ccc(Cl)nc21 [compound 17, 2-Chloro-5,11-dihydro-11-ethyl-5-methyl-8-{2-{(1-oxido-4-quinolinyl)oxy}-ethyl}-6H-dipyrido[3,2-b:2′,3′-e][1,4]diazepin-6-one] | 319 | 198 | 25 | 40 | 0.34 | 2.8 | 2.3 | 2.7 | 1.2 |
| CCN1c2ncc(CCOc3cc[n+]([O-])c4ccccc34)cc2C(=O)N(C)c2cccnc21 [compound 21, 5,11-Dihydro-11-ethyl-5-methyl-8-{2-{(1-oxido-4-quinolinyl)oxy}ethyl}-6H-dipyrido[3,2-b:2′,3′-e][1,4]diazepin-6-one] | 1110 | 1360 | 26 | 168 | 0.53 | 4.8 | 4.3 | 5 | 5.9 |
